The results in this text go back to US11485728B2, “Small molecules for the treatment of autoimmune diseases and cancer” (Athos Therapeutics, Inc., priority 2020, dated 2022).

Common to all, as to assay type: in vitro ADME
One experiment concerns the target T1, CYP2D6 (Homo sapiens, UniProt P10635).
T1 construct: from tissue; host or cells: pooled human liver microsomes
Kind of experiment: CYP-direct inhibition, CYP2D6. The protocol:
(§1) Many drugs inhibit cytochrome P450 enzymes to cause clinically significant changes in the pharmacokinetics of other drugs. In vitro cytochrome P450 inhibition, can provide crucial information in evaluating potential clinical drug-drug interactions and is useful for focusing in vivo tests to areas of concern. The cytochrome P450 inhibition assay was developed by preparing a working cocktail solution consisting of six probe substrates 10 μM ethoxy-resorufin (CYP1A2), 100 μM rosiglitazone (CYP2C8), 50 μM diclofenac (CYP2C9), 300 μM S-mephenytoin (CYP2C19), 50 μM dextromethorphan (CYP2D6), and 20 μM midazolam (CYP3A4). A mixture solution consists of 140 uL of 0.286 mg/mL of pooled human liver microsome working solution and 20 uL working solutions of test articles, standard control inhibitors, or positive control placebo and 20 uL of substrate cocktail mixture working solution was prepared. The mixture solution was pre-warm in a gentle shaking bath at 37±2° C. for 5 minutes. The enzymatic reaction started by adding 20 uL of NRS working solution to the mixture solution and incubated for 10 minutes at 37±2° C. To stop the reaction, an addition of 400 μL cold stop solution (acetonitrile containing 50 ng/mL Tolbutamide as an internal standard (I.Std.) was added to the mixture solution. The final concentration of test article, inhibitors, substrates, and cofactors are noted in Table 0.1 below. Two individual samples were prepared for each test compound. The extracted samples were vortexed and then centrifuged at 4500 rpm for 7 minutes using Eppendorf Centrifuge 5910R. 200 uL of supernatant was diluting with 200 uL of 50% Methanol into 96-DW plate for LC/MS/MS analysis
(§2) Concentration-response plots are used to determine the effects of an inhibitor on an enzymatic reaction. A typical concentration-response plot provides fractional activity (Y axis) is plotted as a function of log inhibitor concentration (X axis). The data are fitted using a standard Sigmoidal dose-response equation which is also called a […] logistic equation. The concentration of compound that results in 50% inhibition of maximal activity is termed as the IC50 (inhibitor concentration yielding 50% inhibition). IC50 value is calculated using Prism GraphPad software, version 9. […].
(§3) Cytochrome P450 inhibition of a drug is a key factor in determining pharmacokinetic drug-drug interactions. The objective of this study was to evaluate the inhibition potential of G9a inhibitors on six (6) major human cytochrome P450 enzymes, including CYP1A2, CYP2C8, CYP2C9, CYP2C19, CYP2D6, and CYP3A4. Inhibition was determined by using a substrate cocktail and analyzing the rate of specific metabolites formation. The cytochrome P450 inhibition assay was developed using a cocktail consisting of six (6) probe substrates ethoxy-resorufin (CYP1A2), rosiglitazone (CYP2C8), diclofenac (CYP2C9), S-mephenytoin (CYP2C19), dextromethorphan (CYP2D6), and midazolam (CYP3A4). The cocktail was incubated in human liver microsome with NADPH regenerating system (NRS) in a shaking bath at 37±2° C. The formation of specific metabolites was monitored by LC/MS/MS. Test compound was added to the cocktail-liver microsome mixture at varying concentrations and its effect on cytochrome P450 activity was determined by analyzing the rate of specific metabolite formation. The percent inhibition was calculated and plotted with reference to the concentration, and the IC50 value for inhibition was derived by fitting the data with a using log(inhibitor) vs. normalized response with variable slope least squares fit by Graphpad Prism® software. […].

In a further experiment the target is T2, CYP1A2 (Homo sapiens, UniProt P05177).
T2 construct: from tissue; host or cells: pooled human liver microsomes
T2 sequence (P05177 1-516): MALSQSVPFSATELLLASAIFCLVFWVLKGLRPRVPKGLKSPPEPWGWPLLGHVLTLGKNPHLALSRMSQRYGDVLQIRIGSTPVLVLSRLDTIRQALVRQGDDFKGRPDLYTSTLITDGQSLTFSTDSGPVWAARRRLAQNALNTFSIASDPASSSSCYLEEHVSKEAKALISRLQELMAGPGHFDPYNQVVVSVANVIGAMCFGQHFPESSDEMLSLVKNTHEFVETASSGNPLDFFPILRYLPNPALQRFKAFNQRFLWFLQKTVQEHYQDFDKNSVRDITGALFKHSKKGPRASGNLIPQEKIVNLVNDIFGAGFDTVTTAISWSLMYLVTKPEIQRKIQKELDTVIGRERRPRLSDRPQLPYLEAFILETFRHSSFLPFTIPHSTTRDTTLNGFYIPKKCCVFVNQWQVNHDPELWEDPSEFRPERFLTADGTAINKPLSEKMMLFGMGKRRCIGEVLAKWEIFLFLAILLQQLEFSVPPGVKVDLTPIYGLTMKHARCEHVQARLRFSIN
Kind of experiment: CYP-direct inhibition, CYP1A2. The protocol:
as §1, §2, §3

A further experiment deals with T3, CYP3A4 (Homo sapiens, UniProt P08684).
T3 construct: from tissue; host or cells: pooled human liver microsomes
Kind of experiment: CYP-direct inhibition, CYP3A4. On the procedure: as §1, §2, §3

[1] abbreviates: human liver microsome, substrate dextromethorphan, read-out: IC50 CYP-2D6.
[2] abbreviates: human liver microsome, substrate ethoxy-resorufin, read-out: IC50 CYP-1A2.

Where two headings read alike, the source gives them in different places.

T1 sequence (P10635 whole entry): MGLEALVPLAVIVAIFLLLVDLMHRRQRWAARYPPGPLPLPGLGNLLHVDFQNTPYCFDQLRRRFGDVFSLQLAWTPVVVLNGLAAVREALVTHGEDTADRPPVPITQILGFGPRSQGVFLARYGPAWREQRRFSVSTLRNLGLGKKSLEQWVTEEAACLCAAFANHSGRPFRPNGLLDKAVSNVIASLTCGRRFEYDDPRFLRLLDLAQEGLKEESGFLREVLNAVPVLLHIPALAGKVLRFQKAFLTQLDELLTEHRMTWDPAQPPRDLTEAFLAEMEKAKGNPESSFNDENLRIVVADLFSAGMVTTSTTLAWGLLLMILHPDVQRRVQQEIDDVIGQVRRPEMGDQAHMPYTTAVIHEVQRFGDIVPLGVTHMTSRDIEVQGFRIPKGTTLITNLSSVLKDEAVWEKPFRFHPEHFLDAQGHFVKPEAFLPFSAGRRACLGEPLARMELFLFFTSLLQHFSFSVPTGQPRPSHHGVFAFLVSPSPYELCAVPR
T3 sequence (P08684 whole entry): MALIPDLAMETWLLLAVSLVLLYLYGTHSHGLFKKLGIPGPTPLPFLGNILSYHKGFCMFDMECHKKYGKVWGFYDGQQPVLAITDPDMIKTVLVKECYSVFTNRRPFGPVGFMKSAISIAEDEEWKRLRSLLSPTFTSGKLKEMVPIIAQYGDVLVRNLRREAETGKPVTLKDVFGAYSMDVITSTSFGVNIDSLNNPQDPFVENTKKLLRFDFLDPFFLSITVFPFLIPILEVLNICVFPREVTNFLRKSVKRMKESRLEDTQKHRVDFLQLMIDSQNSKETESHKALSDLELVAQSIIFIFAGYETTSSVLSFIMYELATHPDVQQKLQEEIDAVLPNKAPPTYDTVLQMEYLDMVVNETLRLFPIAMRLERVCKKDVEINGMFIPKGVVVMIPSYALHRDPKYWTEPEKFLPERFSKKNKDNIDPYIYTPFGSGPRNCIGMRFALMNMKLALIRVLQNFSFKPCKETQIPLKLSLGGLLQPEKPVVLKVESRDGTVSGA

As for `COc1cc2c(N[C@H]3CCCNC3)nc(N3CCCC3)nc2cc1OCCCN1CCCC1` [Compound 158, (S)-6-methoxy-N-(piperidin-3-yl)-2-(pyrrolidin-1-yl)-7-(3-(pyrrolidin-1-yl)propoxy)quinazolin-4-amine], the IC50 (usually the concentration that gives 50% inhibition) on CYP2D6 (setting [1]) was 65.6 µM; at CYP1A2 (setting [2]), greater than 100 µM; at CYP3A4, greater than 100 µM.

Turning to `COc1cc2c(N[C@@H]3CCCNC3)nc(N3CCCC3)nc2cc1OCCCN1CCCC1` [Compound 159, (R)-6-methoxy-N-(piperidin-3-yl)-2-(pyrrolidin-1-yl)-7-(3-(pyrrolidin-1-yl)propoxy)quinazolin-4-amine], the IC50 at CYP2D6 (setting [1]) is 50.9 µM; at CYP1A2 (setting [2]), greater than 100 µM; on CYP3A4, greater than 100 µM.

Take `COc1cc2c(NC3CCOCC3)nc(N3CCCC3)nc2cc1OCCCN1CCCC1` [Compound 164, 6-methoxy-2-(pyrrolidin-1-yl)-7-(3-(pyrrolidin-1-yl)propoxy)-N-(tetrahydro-2H-pyran-4-yl)quinazolin-4-amine]: the IC50 on CYP2D6 (setting [1]) is 24.8 µM; at CYP1A2 (setting [2]), greater than 100 µM; on CYP3A4, greater than 100 µM.

`COc1cc2c(NC3CCOCC3)nc(N3CCC3)nc2cc1OCCCN1CCCC1` [Compound 174, 2-(azetidin-1-yl)-6-methoxy-7-(3-(pyrrolidin-1-yl)propoxy)-N-(tetrahydro-2H-pyran-4-yl)quinazolin-4-amine]: the IC50 was 23 µM at CYP2D6 (setting [1]), 63.1 µM at CYP1A2 (setting [2]) and greater than 100 µM against CYP3A4.

For the compound `COc1cc2c(NC3CCOCC3)nc(N3CCOCC3)nc2cc1OCCCN1CCCC1` [Compound 195, 6-methoxy-2-morpholino-7-(3-(pyrrolidin-1-yl)propoxy)-N-(tetrahydro-2H-pyran-4-yl)quinazolin-4-amine], the IC50 on CYP2D6 (setting [1]), on CYP1A2 (setting [2]) and against CYP3A4 was greater than 100 µM in each case.

For `COc1cc2c(NC3CCOCC3)nc(N3CCS(=O)(=O)CC3)nc2cc1OCCCN1CCCC1` [Compound 196, 4-(6-methoxy-7-(3-(pyrrolidin-1-yl)propoxy)-4-((tetrahydro-2H-pyran-4-yl)amino)quinazolin-2-yl)thiomorpholine 1,1-dioxide], the figures for the IC50 on CYP2D6 (setting [1]), at CYP1A2 (setting [2]) and at CYP3A4 were 84.8 µM, greater than 100 µM and greater than 100 µM, respectively.

On to `COc1cc2c(NC3CCN(C(C)C)CC3)nc(N3CCC3)nc2cc1OCCCN1CCCC1` [Compound 234, 2-(azetidin-1-yl)-N-(1-isopropylpiperidin-4-yl)-6-methoxy-7-(3-(pyrrolidin-1-yl)propoxy)quinazolin-4-amine], for which the values for the half-maximal inhibitory concentration (IC50) at CYP2D6 (setting [1]), on CYP1A2 (setting [2]) and on CYP3A4 were 77.9 µM, greater than 100 µM and greater than 100 µM, respectively.

For `COc1cc2c(NC3CCN(C(C)C)CC3)nc(C#N)nc2cc1OCCCN1CCCC1` [Compound 235, 4-((1-isopropylpiperidin-4-yl)amino)-6-methoxy-7-(3-(pyrrolidin-1-yl)propoxy)quinazoline-2-carbonitrile], the IC50 on CYP2D6 (setting [1]), on CYP1A2 (setting [2]) and at CYP3A4 was greater than 100 µM each time.

On to `COc1cc2c(NC3CCOCC3)nc(N3CCN(C)CC3)nc2cc1OCCCN1CCCC1` [Compound 236, 6-methoxy-2-(4-methylpiperazin-1-yl)-7-(3-(pyrrolidin-1-yl)propoxy)-N-(tetrahydro-2H-pyran-4-yl)quinazolin-4-amine], for which the IC50 on CYP2D6 (setting [1]), on CYP1A2 (setting [2]) and at CYP3A4 was greater than 100 µM in each case.

Consider `COc1cc2c(NC3CCOCC3)nc(N3CCCN(C)CC3)nc2cc1OCCCN1CCCC1` [Compound 237, 6-methoxy-2-(4-methyl-1,4-diazepan-1-yl)-7-(3-(pyrrolidin-1-yl)propoxy)-N-(tetrahydro-2H-pyran-4-yl)quinazolin-4-amine], for which the IC50 on CYP2D6 (setting [1]) was 86.2 µM; on CYP1A2 (setting [2]), greater than 100 µM; against CYP3A4, greater than 100 µM.

As to `COc1cc2c(NC3CCS(=O)(=O)CC3)nc(N3CCC(F)(F)CC3)nc2cc1C#CCN1CCCC1` [Compound 248, 4-((2-(4,4-difluoropiperidin-1-yl)-6-methoxy-7-(3-(pyrrolidin-1-yl)prop-1-yn-1-yl)quinazolin-4-yl)amino)tetrahydro-2H-thiopyran 1,1-dioxide], the IC50 at CYP2D6 (setting [1]) was 55.9 µM; at CYP1A2 (setting [2]) it was greater than 100 µM; at CYP3A4, greater than 100 µM.

For the compound `COc1cc2c(NC3CCN(C(C)C)CC3)nc(N3CCC(F)(F)CC3)nc2cc1OCCCN1CCCC1` [Compound 400, 2-(4,4-difluoropiperidin-1-yl)-N-(1-isopropylpiperidin-4-yl)-6-methoxy-7-(3-(pyrrolidin-1-yl)propoxy)quinazolin-4-amine, reference compound], the IC50 against CYP2D6 is 28.8 µM; against CYP1A2 it was greater than 100 µM; against CYP3A4, greater than 100 µM.
